According to ChEMBL document CHEMBL5042504 (J Med Chem, 2022):
Calls of active or inactive are those of the source. No cut-off for these calls is given here.

Tests used:
Histone deacetylase 9 = Histone deacetylase 9 (Homo sapiens, UniProt Q9UKV0); assay: Inhibition of human recombinant HDAC9 using Boc-Lys(triflouroacetyI)-AMC substrate incubated for 2 hrs by fluorescence based assay
Histone deacetylase 5 = Histone deacetylase 5 (Homo sapiens, UniProt Q9UQL6); assay: Inhibition of human recombinant HDAC5 using Boc-Lys(triflouroacetyI)-AMC substrate incubated for 2 hrs by fluorescence based assay
Chain of Histone deacetylase 5 (Q9UQL6 whole entry): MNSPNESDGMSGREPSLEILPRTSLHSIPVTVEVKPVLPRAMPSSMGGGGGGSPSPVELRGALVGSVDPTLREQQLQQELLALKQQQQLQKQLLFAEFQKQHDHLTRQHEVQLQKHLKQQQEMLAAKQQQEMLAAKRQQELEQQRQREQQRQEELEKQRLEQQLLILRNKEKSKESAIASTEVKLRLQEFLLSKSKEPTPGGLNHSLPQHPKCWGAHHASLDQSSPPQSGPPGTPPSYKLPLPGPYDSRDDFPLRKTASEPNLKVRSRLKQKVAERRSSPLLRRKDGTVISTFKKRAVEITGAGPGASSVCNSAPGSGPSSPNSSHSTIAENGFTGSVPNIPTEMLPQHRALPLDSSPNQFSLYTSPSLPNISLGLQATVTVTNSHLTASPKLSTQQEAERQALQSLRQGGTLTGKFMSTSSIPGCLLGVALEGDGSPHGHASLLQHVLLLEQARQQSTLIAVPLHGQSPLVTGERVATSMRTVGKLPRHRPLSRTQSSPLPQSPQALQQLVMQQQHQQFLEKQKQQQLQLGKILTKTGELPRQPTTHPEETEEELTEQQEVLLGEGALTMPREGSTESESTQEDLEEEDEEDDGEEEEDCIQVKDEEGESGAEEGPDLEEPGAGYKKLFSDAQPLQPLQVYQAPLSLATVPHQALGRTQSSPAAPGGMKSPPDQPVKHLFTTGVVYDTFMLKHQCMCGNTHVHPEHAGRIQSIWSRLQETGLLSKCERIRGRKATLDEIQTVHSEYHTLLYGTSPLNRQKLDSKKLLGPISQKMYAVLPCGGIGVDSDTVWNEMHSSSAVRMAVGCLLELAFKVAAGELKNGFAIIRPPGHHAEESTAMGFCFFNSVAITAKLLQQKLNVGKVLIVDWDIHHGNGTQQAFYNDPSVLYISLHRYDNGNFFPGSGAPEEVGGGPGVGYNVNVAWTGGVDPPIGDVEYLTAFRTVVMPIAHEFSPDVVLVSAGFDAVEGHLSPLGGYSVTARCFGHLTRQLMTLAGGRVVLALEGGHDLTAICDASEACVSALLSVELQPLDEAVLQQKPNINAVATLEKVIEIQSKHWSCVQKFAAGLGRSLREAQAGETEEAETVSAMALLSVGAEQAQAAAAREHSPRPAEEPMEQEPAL

RS4-11 = assay: Antiproliferative activity against human RS4-11 cells assessed as reduction in cell viability measured after 48 hrs by multiplate reader method; settings: RS4-11, 48 h
[1] = target: T1, Polyamine deacetylase HDAC10 (Homo sapiens, UniProt Q969S8); assay: Inhibition of human recombinant HDAC10 using Boc-Lys(triflouroacetyI)-AMC substrate incubated for 2 hrs by fluorescence based assay
T1 sequence (Q969S8 whole entry): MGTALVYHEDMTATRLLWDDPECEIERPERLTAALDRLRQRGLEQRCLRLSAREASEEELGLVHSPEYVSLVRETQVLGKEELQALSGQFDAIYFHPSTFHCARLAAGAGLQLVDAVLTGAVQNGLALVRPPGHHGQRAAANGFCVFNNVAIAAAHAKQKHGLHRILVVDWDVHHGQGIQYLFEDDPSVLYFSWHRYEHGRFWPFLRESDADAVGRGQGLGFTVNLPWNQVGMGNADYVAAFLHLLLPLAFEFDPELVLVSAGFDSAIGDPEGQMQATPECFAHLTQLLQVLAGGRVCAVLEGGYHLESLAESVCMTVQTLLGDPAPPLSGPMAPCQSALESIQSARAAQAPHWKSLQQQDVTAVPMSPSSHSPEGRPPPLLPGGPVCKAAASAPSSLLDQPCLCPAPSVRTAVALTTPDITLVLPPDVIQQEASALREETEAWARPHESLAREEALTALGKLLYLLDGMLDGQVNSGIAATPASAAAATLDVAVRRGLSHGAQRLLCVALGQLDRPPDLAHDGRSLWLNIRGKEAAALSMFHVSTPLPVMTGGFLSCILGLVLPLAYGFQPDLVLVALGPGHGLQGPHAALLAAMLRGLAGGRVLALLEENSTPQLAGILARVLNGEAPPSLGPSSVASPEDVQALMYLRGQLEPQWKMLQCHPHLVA

MV4-11 [2] = assay: Up regulation of acetylated histoneH4 ine expression in human MV4-11 cells at 200 nM measured after 24 hrs by Western blot analysis; type: functional, cell-based
Histone deacetylase 4 = Histone deacetylase 4 (Homo sapiens, UniProt P56524); assay: Inhibition of human recombinant HDAC4 using Boc-Lys(triflouroacetyI)-AMC substrate incubated for 2 hrs by fluorescence based assay
Chain of Histone deacetylase 4 (P56524 whole entry): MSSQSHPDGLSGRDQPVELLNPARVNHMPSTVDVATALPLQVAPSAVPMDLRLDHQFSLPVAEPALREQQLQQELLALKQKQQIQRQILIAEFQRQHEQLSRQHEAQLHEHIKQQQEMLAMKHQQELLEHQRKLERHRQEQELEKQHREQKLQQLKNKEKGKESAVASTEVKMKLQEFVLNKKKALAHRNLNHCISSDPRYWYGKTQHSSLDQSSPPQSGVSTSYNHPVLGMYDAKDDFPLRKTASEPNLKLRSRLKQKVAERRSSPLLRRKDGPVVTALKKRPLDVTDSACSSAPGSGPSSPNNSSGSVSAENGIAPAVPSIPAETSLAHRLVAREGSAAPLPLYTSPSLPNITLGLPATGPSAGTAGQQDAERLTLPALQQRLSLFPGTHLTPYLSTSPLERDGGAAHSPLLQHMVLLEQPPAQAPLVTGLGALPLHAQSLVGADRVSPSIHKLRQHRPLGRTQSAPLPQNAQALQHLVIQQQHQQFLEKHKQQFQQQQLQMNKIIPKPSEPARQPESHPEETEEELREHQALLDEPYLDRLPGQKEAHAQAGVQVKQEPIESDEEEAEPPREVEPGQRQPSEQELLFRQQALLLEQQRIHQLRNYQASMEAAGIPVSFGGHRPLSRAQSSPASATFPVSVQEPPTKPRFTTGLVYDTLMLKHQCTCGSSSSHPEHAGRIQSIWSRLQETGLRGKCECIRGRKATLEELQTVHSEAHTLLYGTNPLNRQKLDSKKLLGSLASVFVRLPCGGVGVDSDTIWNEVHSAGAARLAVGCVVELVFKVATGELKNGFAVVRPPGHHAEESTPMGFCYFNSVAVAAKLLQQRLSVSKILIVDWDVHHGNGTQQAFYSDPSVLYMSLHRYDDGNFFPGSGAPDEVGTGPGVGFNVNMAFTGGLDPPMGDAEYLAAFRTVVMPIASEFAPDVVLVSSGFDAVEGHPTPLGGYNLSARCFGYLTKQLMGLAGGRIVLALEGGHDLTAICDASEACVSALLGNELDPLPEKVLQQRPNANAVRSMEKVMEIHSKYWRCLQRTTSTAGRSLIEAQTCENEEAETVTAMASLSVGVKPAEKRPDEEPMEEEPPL

Histone deacetylase 7 = target: T2, Histone deacetylase 7 (Homo sapiens, UniProt Q8WUI4); assay: Inhibition of human recombinant HDAC7 using Boc-Lys(triflouroacetyI)-AMC substrate incubated for 2 hrs by fluorescence based assay
T2 sequence (Q8WUI4 whole entry): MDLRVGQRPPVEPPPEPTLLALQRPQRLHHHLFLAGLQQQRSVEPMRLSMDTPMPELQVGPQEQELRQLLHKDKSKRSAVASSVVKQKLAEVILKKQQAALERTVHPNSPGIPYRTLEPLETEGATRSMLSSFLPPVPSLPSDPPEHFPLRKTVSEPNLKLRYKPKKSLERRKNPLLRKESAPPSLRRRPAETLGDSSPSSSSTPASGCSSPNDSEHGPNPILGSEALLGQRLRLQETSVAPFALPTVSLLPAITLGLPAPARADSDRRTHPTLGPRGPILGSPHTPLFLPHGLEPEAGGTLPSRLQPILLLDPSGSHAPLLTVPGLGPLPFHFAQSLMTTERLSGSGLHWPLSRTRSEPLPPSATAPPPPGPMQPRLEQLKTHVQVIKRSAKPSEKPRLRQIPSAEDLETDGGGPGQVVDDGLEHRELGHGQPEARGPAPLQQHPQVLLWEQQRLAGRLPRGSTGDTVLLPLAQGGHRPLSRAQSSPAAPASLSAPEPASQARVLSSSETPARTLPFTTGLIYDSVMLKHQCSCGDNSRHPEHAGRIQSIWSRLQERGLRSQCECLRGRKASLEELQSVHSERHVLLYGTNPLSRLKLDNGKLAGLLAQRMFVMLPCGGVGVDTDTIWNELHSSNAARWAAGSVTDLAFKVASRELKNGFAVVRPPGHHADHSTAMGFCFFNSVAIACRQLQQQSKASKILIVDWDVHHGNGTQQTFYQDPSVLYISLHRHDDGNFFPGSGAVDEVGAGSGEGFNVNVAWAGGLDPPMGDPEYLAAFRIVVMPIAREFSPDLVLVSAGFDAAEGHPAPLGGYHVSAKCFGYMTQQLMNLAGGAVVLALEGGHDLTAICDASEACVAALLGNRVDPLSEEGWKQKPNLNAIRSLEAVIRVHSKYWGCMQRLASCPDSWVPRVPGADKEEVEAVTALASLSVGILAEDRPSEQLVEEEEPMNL

MV4-11 [3] = assay: cells; settings: Homo sapiens, MV4-11, 48 h
Description: Antiproliferative activity against human MV4-11 AML cells assessed as cell viability measured after 48 hrs by multiplate reader method

[4] = Drug distribution in BALB/c mouse kidney measured at 4 mg/kg, po or ip after 0.5 hrs after 0.5 hrs; type: ADME, organism-based; settings: in vivo
[5] = Drug distribution in tumor of BALB/c mouse xenografted with human MV4-11 cells assessed as measured after 8 hrs; type: ADME; settings: read-out: Drug uptake
MV4-11 [6] = assay: Antitumor activity against human MV4-11 cells xenografted in balb/c mouse assessed as accumulation of AcHH3 protein level at 4 mg/kg, po measured after 8 hrs; type: functional, organism-based
MV4-11 [7] = assay: Antitumor activity against human MV4-11 cells xenografted in BALB/c mouse assessed as inhibition of tumor growth at single administration for 4 mg/kg, po incubated for 0.5 to 8 hrs; type: functional, organism-based; settings: time 0.5-8 hrs
[8] = Drug distribution in BALB/c mouse brain measured at 4 mg/kg, po or ip after 0.5 hrs after 0.5 hrs; type: ADME, organism-based; settings: in vivo
[9] = Plasma concentration in BALB/c mouse xenografted with human AML MV4-11 cells at 4 mg/kg, po; type: ADME, organism-based; settings: in vivo
[10] = Drug distribution in BALB/c mouse spleen measured at 4 mg/kg, po or ip after 0.5 hrs; type: ADME, organism-based; settings: in vivo
[11] = Drug distribution in BALB/c mouse lung measured at 4 mg/kg, po or ip after 0.5 hrs after 0.5 hrs; type: ADME, organism-based; settings: in vivo
[12] = Drug distribution in tumor of BALB/c mouse xenografted with human MV4-11 cells assessed as measured after 2 hrs; type: ADME; settings: read-out: Ct
[13] = Drug distribution in BALB/c mouse liver measured at 4 mg/kg, po or ip after 2 to 8 hrs after 0.5 hrs; type: ADME, organism-based; settings: in vivo, time 2-8 hrs
[14] = Drug distribution in BALB/c mouse kidney measured at 4 mg/kg, po or ip after 2 to 8 hrs after 0.5 hrs; type: ADME, organism-based; settings: in vivo, time 2-8 hrs
[15] = Drug distribution in BALB/c mouse brain measured at 4 mg/kg, po or ip after 2 to 8 hrs after 0.5 hrs; type: ADME, organism-based; settings: in vivo, time 2-8 hrs
[16] = Half life in CD-1 mouse at 20 mg/kg, po measured upto 24 hrs; type: ADME, organism-based; settings: in vivo

Chain of Histone deacetylase 9 (Q9UKV0 whole entry): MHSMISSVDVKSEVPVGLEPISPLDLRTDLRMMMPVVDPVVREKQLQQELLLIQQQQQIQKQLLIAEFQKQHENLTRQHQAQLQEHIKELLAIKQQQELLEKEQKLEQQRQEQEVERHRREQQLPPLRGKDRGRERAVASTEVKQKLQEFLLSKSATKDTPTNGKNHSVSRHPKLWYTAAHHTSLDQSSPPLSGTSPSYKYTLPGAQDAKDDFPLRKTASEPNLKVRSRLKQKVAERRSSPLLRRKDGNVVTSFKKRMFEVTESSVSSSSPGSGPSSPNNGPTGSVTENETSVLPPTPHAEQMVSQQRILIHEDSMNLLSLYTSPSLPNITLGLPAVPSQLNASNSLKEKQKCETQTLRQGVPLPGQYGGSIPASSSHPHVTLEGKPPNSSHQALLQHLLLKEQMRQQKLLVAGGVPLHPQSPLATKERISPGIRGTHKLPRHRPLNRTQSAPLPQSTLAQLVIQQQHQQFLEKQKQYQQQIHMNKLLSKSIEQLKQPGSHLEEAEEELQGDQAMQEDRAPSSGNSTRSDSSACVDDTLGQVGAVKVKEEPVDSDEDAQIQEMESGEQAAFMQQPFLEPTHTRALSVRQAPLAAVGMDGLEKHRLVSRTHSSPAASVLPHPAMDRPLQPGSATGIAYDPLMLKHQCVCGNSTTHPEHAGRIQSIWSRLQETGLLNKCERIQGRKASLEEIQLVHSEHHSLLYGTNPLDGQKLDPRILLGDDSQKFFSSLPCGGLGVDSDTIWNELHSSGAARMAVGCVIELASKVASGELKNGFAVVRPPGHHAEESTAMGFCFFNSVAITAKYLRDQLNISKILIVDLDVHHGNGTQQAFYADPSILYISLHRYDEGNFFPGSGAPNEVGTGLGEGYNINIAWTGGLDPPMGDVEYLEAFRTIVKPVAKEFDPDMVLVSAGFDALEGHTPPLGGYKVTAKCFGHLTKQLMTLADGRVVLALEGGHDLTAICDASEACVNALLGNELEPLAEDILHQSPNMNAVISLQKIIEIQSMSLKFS

| IC50 (Histone deacetylase 9) [µM] | IC50 (Histone deacetylase 5) [µM] | IC50 (RS4-11) [µM] | IC50 [1] [µM] | IC50 (Histone deacetylase 4) [µM] | IC50 (Histone deacetylase 7) [µM] | Compound | Activity (MV4-11 [2]) | further results |
| --- | --- | --- | --- | --- | --- | --- | --- | --- |
| > 5 | > 5 | 0.082 | > 5 | > 5 | > 5 | CCCNNC(=O)c1ccc(CNC(=O)/C=C/c2ccccc2)cc1 | Active | IC50 (MV4-11 [3]): 0.0364 µM |
| > 5 | > 5 | 0.0315 | > 5 | > 5 | > 5 | CCCNNC(=O)c1ccc(CNC(=O)c2cc3ccccc3[nH]2)cc1 | Active | Drug uptake [4]: Active; concentration at 8 h [5]: 151 ng/g; Activity (MV4-11 [6]): Active; Activity (MV4-11 [7]): Active; Drug uptake [8]: Active; Drug uptake [9]: Active; Drug uptake [10]: Active; Drug uptake [11]: Active; concentration at 2 h [12]: 882 ng/g; Drug uptake [13]: Active; Drug uptake [14]: Active; Drug uptake [15]: Active; half-life [16]: 2.58 h |
